From US20060110332A1, “Agent for medicamentous treatment of acute and chronic pain” (Max-Delbruck-Centrum Fur Molekulare Medizin, priority 2002, published 2006)
pEC50: −log10 of the molar value. “Also recorded” adds a separate entry of the source. Like-named read-outs stand apart in the source and are kept apart here.

Key:
[1] = tested on: cutaneous mechanotransduction; assay: Skin-nerve preparation (saphenous nerve), mechanical sensitivity of the skin; design: species or system mice
Description: The use of the skin-nerve preparation, which the present invention is based on, allows for the electrophysiological analysis of the different neurofibre types which innervate the skin (Koltzenburg et al., 1997, see above). The saphenous nerve and the region of the skin that it innervates are prepared from freshly killed mice and are mounted in a bath of physiological buffer. After mechanical or electrical stimulation of the skin, the nerve signals can be received directly from the nerve. For determining the effective concentration, tests were carried out with different concentrations of mibefradil in the bath solution. The EC50 of mibefradil on cells is between 0.1 and 1 μM. […] The unspecific blockade at high concentrations may be due to the fact that mibefradil, at high concentrations, has a very unspecific effect on other ubiquitously expressed calcium channels. Such blocking is lost at lower concentrations. The blocking of some AM mechanoreceptors also at low concentrations of mibefradil could have two reasons. The first possibility is that AM mechanoreceptors, too, express CaV3.2. This, however, is not very likely based on the findings obtained by the in-situ hybridisation within the framework of the present invention. It may rather be assumed that a different isotype, i.e. CaV3.3 is expressed in AM mechanoreceptors. It was not possible to detect CaV3.3 in in-situ hybridisation experiments in spinal ganglia, but other groups reported the expression of this calcium channel in medium-size cells. […] To sum up, it is concluded that the calcium channel CaV3.2 in spinal ganglia specifically expresses in D-hair mechanoreceptors and is therefore indispensable for its function. The discovery that the voltage-dependent calcium channels are involved in the transduction of mechanical stimuli by nociceptive and non-nociceptive neurons is new. Due to their physiological properties together with their specific localisation on the site of the mechanotransduction in the periphery, the calcium channels are ideal targets for pain therapy, which the invention is based on.

D-hair mechanoreceptors = assay: Skin-nerve preparation (saphenous nerve), D-hair mechanoreceptors; design: species or system mice; details: 3 μM mibefradil in the bath solution
Description: (§1) The use of the skin-nerve preparation, which the present invention is based on, allows for the electrophysiological analysis of the different neurofibre types which innervate the skin (Koltzenburg et al., 1997, see above). The saphenous nerve and the region of the skin that it innervates are prepared from freshly killed mice and are mounted in a bath of physiological buffer. After mechanical or electrical stimulation of the skin, the nerve signals can be received directly from the nerve. For determining the effective concentration, tests were carried out with different concentrations of mibefradil in the bath solution. The EC50 of mibefradil on cells is between 0.1 and 1 μM. […] The unspecific blockade at high concentrations may be due to the fact that mibefradil, at high concentrations, has a very unspecific effect on other ubiquitously expressed calcium channels. Such blocking is lost at lower concentrations. The blocking of some AM mechanoreceptors also at low concentrations of mibefradil could have two reasons. The first possibility is that AM mechanoreceptors, too, express CaV3.2. This, however, is not very likely based on the findings obtained by the in-situ hybridisation within the framework of the present invention. It may rather be assumed that a different isotype, i.e. CaV3.3 is expressed in AM mechanoreceptors. […]

AM mechanoreceptors = assay: Skin-nerve preparation (saphenous nerve), AM mechanoreceptors; design: species or system mice; details: 3 μM mibefradil in the bath solution
Description: as §1

CaV3.1 = CaV3.1 (Rattus norvegicus, UniProt O54898); details: compared with CaV3.2; cited from earlier work
CaV3.1, sequence (O54898 whole entry): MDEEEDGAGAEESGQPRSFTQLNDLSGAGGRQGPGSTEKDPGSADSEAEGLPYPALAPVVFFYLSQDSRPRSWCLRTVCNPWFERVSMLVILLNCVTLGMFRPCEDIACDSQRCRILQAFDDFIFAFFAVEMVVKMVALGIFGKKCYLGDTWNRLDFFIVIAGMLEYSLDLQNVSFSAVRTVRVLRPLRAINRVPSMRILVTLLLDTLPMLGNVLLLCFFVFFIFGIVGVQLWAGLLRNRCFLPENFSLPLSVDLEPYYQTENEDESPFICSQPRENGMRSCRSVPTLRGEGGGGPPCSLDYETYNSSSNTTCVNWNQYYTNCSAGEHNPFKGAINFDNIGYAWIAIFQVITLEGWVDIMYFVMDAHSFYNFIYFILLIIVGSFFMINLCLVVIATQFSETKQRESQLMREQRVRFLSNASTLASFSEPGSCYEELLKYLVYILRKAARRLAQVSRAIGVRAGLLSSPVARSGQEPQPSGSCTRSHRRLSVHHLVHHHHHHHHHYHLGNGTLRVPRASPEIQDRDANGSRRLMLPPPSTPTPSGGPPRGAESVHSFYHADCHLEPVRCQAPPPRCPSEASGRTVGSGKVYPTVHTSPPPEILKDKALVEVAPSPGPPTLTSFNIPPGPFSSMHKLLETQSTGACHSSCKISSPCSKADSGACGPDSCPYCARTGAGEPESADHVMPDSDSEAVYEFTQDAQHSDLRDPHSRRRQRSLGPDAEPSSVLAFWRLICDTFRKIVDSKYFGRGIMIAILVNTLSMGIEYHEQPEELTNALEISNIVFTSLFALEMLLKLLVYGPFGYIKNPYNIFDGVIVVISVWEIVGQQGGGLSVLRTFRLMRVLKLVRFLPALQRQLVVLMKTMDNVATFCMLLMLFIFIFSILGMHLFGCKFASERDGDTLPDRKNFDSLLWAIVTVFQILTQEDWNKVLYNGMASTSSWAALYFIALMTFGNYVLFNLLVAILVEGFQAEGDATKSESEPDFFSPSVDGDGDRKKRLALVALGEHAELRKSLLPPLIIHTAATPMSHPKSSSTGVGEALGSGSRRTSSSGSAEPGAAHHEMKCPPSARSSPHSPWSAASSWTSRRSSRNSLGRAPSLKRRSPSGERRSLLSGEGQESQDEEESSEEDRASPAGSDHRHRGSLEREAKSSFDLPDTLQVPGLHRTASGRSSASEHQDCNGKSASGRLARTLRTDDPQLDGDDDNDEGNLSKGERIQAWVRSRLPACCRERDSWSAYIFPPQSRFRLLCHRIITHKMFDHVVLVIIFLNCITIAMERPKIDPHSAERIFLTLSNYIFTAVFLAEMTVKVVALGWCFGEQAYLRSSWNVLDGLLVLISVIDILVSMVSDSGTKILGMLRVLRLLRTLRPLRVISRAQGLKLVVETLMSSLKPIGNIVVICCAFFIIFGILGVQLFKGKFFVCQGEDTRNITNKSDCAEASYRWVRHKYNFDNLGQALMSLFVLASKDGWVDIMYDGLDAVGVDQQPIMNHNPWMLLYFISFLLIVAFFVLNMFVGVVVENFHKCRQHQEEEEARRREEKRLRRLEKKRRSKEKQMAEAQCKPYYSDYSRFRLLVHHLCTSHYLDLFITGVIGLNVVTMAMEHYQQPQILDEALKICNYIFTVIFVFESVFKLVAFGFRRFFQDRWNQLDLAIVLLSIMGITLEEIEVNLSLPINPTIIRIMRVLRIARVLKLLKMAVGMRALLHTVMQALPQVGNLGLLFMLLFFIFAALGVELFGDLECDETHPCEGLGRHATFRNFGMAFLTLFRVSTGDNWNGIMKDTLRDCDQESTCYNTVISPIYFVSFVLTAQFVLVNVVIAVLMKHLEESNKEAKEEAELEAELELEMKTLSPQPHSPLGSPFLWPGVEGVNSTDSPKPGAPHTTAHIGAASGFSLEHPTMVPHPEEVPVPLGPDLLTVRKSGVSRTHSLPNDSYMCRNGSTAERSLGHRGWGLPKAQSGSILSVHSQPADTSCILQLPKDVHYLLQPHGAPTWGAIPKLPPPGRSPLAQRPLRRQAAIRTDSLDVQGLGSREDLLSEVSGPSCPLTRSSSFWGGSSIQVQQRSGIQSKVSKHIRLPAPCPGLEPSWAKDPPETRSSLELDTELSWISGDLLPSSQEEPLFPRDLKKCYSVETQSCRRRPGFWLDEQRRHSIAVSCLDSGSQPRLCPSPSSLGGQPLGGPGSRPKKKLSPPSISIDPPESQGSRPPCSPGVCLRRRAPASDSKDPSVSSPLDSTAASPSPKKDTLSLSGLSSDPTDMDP

CaV3.3 = details: compared with CaV3.2, cited from earlier work
L-type calcium channels = details: cited from earlier work
[2] = reason for removal from the market; cited from earlier work
T-type calcium channels = details: cited from earlier work
CaV3.2 = CaV3.2 (Homo sapiens, UniProt O95180); details: cited from earlier work
CaV3.2, sequence (O95180 whole entry): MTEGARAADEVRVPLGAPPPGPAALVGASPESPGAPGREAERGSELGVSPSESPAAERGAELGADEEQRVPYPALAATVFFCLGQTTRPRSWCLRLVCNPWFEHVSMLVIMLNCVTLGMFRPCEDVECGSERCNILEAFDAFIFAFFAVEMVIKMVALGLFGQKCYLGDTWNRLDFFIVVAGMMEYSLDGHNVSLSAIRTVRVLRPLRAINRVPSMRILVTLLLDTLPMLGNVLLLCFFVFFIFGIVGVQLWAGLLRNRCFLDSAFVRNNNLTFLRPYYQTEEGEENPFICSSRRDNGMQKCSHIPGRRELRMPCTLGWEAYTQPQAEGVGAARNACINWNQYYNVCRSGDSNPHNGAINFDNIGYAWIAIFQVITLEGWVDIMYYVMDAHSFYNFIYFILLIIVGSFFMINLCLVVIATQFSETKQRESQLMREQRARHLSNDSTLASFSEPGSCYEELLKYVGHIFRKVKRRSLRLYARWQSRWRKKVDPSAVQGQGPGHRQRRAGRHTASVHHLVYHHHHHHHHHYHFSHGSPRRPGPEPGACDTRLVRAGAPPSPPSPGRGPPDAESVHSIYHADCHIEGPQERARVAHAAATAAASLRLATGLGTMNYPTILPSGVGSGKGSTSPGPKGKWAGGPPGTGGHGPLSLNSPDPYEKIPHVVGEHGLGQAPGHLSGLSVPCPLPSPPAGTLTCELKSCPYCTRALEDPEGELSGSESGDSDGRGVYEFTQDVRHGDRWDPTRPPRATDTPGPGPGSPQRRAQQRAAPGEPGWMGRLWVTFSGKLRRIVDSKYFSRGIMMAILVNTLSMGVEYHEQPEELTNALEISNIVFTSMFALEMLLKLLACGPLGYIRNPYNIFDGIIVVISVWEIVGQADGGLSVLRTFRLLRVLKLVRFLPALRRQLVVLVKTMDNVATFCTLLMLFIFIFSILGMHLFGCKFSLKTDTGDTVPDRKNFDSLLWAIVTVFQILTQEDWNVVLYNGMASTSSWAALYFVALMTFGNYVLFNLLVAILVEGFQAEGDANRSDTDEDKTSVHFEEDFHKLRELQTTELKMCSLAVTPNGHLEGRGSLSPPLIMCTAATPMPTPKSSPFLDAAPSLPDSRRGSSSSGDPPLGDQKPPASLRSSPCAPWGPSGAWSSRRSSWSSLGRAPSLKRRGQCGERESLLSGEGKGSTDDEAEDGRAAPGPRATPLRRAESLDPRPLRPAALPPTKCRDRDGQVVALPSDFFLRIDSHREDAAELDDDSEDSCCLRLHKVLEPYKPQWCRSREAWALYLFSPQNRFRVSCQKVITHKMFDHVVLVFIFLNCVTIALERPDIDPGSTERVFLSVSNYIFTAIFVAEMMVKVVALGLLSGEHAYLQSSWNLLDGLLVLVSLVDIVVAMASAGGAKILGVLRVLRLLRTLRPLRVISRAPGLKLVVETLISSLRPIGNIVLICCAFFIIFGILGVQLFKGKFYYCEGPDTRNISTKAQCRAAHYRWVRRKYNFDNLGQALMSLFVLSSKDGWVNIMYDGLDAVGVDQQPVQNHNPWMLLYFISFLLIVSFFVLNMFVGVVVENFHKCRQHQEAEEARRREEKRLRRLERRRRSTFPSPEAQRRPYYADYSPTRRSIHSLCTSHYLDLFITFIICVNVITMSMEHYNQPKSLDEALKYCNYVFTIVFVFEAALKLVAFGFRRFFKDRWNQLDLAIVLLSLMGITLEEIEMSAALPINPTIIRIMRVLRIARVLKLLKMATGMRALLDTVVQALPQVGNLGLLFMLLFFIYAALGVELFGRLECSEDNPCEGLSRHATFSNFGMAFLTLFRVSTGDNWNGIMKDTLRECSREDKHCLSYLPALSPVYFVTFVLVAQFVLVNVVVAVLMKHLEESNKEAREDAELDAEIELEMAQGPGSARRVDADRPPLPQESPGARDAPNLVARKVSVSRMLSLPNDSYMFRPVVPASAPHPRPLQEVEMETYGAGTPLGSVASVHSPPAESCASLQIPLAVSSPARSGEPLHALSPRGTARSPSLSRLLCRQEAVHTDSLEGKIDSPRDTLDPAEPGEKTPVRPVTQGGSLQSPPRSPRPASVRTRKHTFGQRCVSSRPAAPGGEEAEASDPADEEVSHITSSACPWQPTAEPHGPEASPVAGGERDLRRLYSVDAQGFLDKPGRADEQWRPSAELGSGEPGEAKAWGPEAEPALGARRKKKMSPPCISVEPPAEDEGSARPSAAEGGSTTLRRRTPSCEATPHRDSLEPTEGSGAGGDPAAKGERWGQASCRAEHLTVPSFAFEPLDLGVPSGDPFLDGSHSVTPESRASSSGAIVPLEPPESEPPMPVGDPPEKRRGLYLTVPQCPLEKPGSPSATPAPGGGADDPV

living tissue = details: cited from earlier work

COCC(=O)O[C@]1(CCN(C)CCCc2nc3ccccc3[nH]2)CCc2cc(F)ccc2[C@@H]1C(C)C [mibefradil]
blocking of mechanotransduction ([1]; higher concentrations of mibefradil): complex blocking of other mechanoreceptors; also recorded: blocks not only the D-hair mechanotransduction but also the entire mechanotransduction
inhibition of cutaneous mechanotransduction ([1]; low concentrations (25 μM or less)): virtually inhibits the entire cutaneous mechanotransduction
blocking of the mechanical sensitivity ([1]; more than 25 μM mibefradil in the bath solution): almost complete and unspecific blocking of the mechanical sensitivity
inhibition of D-hair mechanoreceptors (D-hair mechanoreceptors): specifically inhibited
inhibition of AM mechanoreceptors (AM mechanoreceptors): in part, also AM mechanoreceptors are specifically inhibited
effect on T-type isotype CaV3.1 (CaV3.1): almost identical effect
effect / semi-effective concentration on CaV3.3 (CaV3.3): almost identical
effect / semi-effective concentration on CaV3.3 (CaV3.3; listed as Mibefradil): almost identical effect
concentration blocking L-type relative to that necessary for T-type blocking (L-type calcium channels): about 10 fold
interaction with other medicaments [2]: severe interaction with other medicaments
selectivity for T-type calcium channels (T-type calcium channels): relatively high selectivity for T-type calcium channels

[Ni] [nickel]
EC50 on CaV3.2 relative to the other isotypes (CaV3.2; CaV3.2 versus other T-type isotypes): 70 times
pEC50 (CaV3.2; read-out: EC50 on CaV3.2): ~5.00
cytotoxicity (living tissue): cytotoxic
